One data set concerns HRSV H01 ON1 isolate. The data set can be described thus: Infection assay with HRSV H01 ON1 isolate, intracellular FACS staining against a virus own protein. It counts as cell-based, human respiratory syncytial virus (HRSV). The protocol: Both graphs show data from analysing the viral infection efficiency by intracellular flow cytometry staining against a virus own protein. […] MFI: mean fluorescence intensity
Another infection assay was carried out with the HRSV H01 ON1 isolate. The analysis/quantification of the viral infection efficiency was carried out by intracellular FACS staining against a virus own protein. […] The amount of viral proteins in the infected cells was […] by the administration of lonafarnib.

For data set [1] the following is noted: cited from earlier work.
In data set [2] the test system is HRSV luciferase reporter virus. The data set can be described thus: HRSV luciferase reporter virus infection assay (first and second round of infection). Type of data set: cell-based, human respiratory syncytial virus (HRSV). As to conditions: for IC50: human respiratory syncytial virus, 24 h. The text has this:
The dose-response relationship of lonafarnib to the HRSV reporter virus is shown on the right. Below are the IC50 and IC90 values of the first round of infection and the second round of infection, respectively, and the 50% cytotoxic concentration of lonafarnib (CC50).
The chemical structure of the farneslytransferase inhibitors lonafarnib and tipifarnib is shown above. The dose-response relationship of these agents against the HRSV luciferase reporter virus is shown below.
Efficiency of HRSV infection-inhibition by lonafarnib was investigated by a series of infection assays. In the first round of infection, the effect of lonafarnib on the virus' cell entry, which includes RNA transcription, translation and replication up to 24 hours after infection, was investigated. In the second round of infection, the cell culture supernatant was harvested and transferred to naive cells at 24 h after primary infection. In these cells, again 24 h later, the infection efficiency was determined using the luciferase reporter. In this way, the efficiency was analyzed over a longer period of time, including the spread of the virus and the re-infection of cells. The IC50 values were determined at 0.02 μM (round 1) and 0.004 μM (round 2). (FIG. 2)
In a further trial, the effect of lonafarnib compared to the farnesyltransferase inhibitor tipifarnib on HRSV-infected cell culture was then analyzed and compared.

For a further data set, the system named is HRSV-B virus. In words: HRSV-B infection assay, number of infected cells. Type of data set: cell-based. As to conditions: % compared to DMSO control (FIG. 9). An excerpt:
However, […].

The subject of another data set is HRSV. The data set can be described thus: HRSV infection of differentiated BCi-NS1.1 air-liquid-interface cultures, viral load by qRT-PCR. It counts as cell-based, human respiratory syncytial virus (HRSV). Particulars: differentiated human airway epithelial cells (BCi-NS1.1), HBSS rinsing fluid and harvested cells, different doses and time points (FIG. 7). An excerpt: Shown are viral loads measured by qRT-PCR after HRSV infection in differentiated BCi-NS1.1 cells and treatment with lonafanib at different doses. right: viral load in HBSS rinsing fluid at different time points after infection. left: viral load of harvested cells, also at different time points after infection.
Then, the antiviral effect of lonafarnib against HRSV was shown in differentiated human airway epithelial cells. Therefore, BCi NS1.1 cells were differentiated and used in so-called “air-liquid-interface” cultures to form a pseudo-stratified lung epithelium. The cells were then infected with HRSV and treated with lonafarnib at different concentrations. The compounds were added to the medium from the basolateral pole of the cell (“liquid interface”, homologous to the blood stream) as well as administered apically (homologous to local treatment via inhalation). At different time points post infection, the cell surface (“air interface”, apical side of the cell culture, homologous to the lumen of the lung) was rinsed with HBSS to remove released viruses from the cell surface. The viral load in the HBSS rinsing fluid was determined by qRT-PCR. Also, at each time point cells were lysed and the virus load in the cell extract was determined by qRT-PCR. (FIG. 7)

In data set [3] the test system is clinical HRSV isolate HRSV H01 ON1. In words: Plaque reduction test with clinical HRSV isolate. It counts as cell-based, human respiratory syncytial virus (HRSV). Particulars: clinical HRSV H01 ON1 isolate (FIG. 4). The method, then: The respective concentrations of lonafarnib, tipifarnib and DMSO (control; final concentration 1%) administered to the cells are indicated on the respective well.
To confirm the antiviral effect of lonafarnib, an infection assay was performed with the clinical HRSV isolate HRSV H01 ON1. The infection efficiency was assessed in the plaque reduction test, i.e. independently of an indirect reporter gene measurement. […] (FIG. 4)
(In general: Plaques are areas of infected cells; plaque reduction assays count them against a control.)

Data set [4] deals with Hepatitis Delta Virus (HDV). The data set can be described thus: Production of infectious Hepatitis Delta Virus in transfected Huh7-hNTCP cells. Type of data set: cell-based. As to conditions: increasing concentrations (FIG. 8). The method, then:
16 h later medium was exchanged and the cells were then cultured in absence or presence of 1% DMSO or increasing concentrations of lonafarnib or tipifarnib; (A) 10 days post transfection, translation of the HDV viral genome in the cells was confirmed by immunofluorescence and percentage of positive cells was calculated; (B) production of infectious progeny HDV was assessed by incubating serial dilutions of their supernatants on naïve Huh7-hNTCP, followed by staining for the HD-Ag—dashed lines indicates the detection threshold of the assay.

The conditions of data set [5]: animals, formulated in crystalline forms; cited from earlier work.
Data set [6] relates to HRSV virus population with resistance to a fusion inhibitor (mutations within the F protein). In words: Infection assay with HRSV population resistant to an HRSV fusion inhibitor, intracellular FACS staining. It counts as cell-based, human respiratory syncytial virus (HRSV). Particulars: fusion inhibitor adapted virus compared with DMSO adapted virus (FIG. 6). The protocol:
The most significant reduction of infected cells is shown in the DMSO adapted virus population by administration of lonafarnib. Dark grey: DMSO adapted virus; light grey: fusion inhibitor adapted virus.
Further, the efficacy of lonafarnib on HRSV virus population that had previously developed resistance to an HRSV fusion inhibitor was investigated. The effectiveness of HRSV infection (number of infected cells) was determined by intracellular FACS staining. […] The HRSV virus population with resistance to a fusion inhibitor was also less susceptible to inhibition by lonafarnib.

Read-outs that look alike come from different tables or passages of the source.

Here are results for one compound from patent US20240091214A1, “LONAFARNIB FOR USE IN THE TREATMENT OF VIRAL INFECTIONS” (TWINCORE ZENTRUM FÜR EXPERIMENTELLE UND KLINISCHE …, priority 2021, published 2024).

By IC50 is commonly meant the midpoint of a concentration-inhibition curve.

With `NC(=O)N1CCC(CC(=O)N2CCC([C@H]3c4ncc(Br)cc4CCc4cc(Cl)cc(Br)c43)CC2)CC1` [lonafarnib], in the data set with HRSV H01 ON1 isolate (intracellular FACS staining (FIG. 5 left)), the “number of infected cells” value is on record as “reduced the number of infected cells in a dose-dependent manner”. In addition, the “amount of viral proteins in the infected cells (MFI)” value with HRSV H01 ON1 isolate (intracellular FACS staining (FIG. 5 right)) was “not reduced”. In addition, the stability in solution result is on record as “will hydrolyze” in [1] (acidic or basic conditions) and “stable at neutral pH” in data set [1] (neutral pH). In addition, the water solubility result in [1] is listed as “poorly water soluble”. The “stability in the solid state” value in [1] (solid state, thermal) is given as “thermally stable”. The “suppression of HRSV infection” value in [2] (HRSV-infected cell culture, dose-response, comparison of lonafarnib and tipifarnib (FIG. 3)) is listed as “highly effective”. Moreover, the concentration for half-maximal inhibition (IC50) in [2] (read-out: IC50, first round of infection) was determined as 20 nM; in data set [2] (read-out: IC50, second round of infection), 4 nM. Besides, the “inhibition of HRSV-B infection (number of infected cells)” value with HRSV-B virus was “selectively and efficiently inhibits the number of infected cells”. The “inhibition of HRSV infection (viral load by qRT-PCR)” value in the data set with HRSV is given as “inhibits HRSV infection”. For the same compound, the “plaque formation (plaque size and number)” value in data set [3] is “reduced plaque size and number in a dose-dependent manner”. The “inhibition of Hepatitis Delta infections” value in data set [4] was “equally inhibit Hepatitis Delta infections”. In addition, the bioavailability result in data set [5] was “low and variable”. Besides, in [6], the “activity against fusion inhibitor-resistant HRSV population (number of infected cells)” value was “reduced activity”.
